The text below walks through data of patent US10934300B2, “Atropisomerism for enhanced kinase inhibitor selectivity” (San Diego State University Foundation, priority 2017, dated 2021).

A value given as a limit tells only on which side of the number the result lay.

For the first experiment, the target named is Src kinase (Homo sapiens, UniProt P12931). Description: Z'-LYTE kinase inhibition, Src. Conditions: Src IC50 (nM), Table 4.
Chain of Src kinase (P12931 whole entry): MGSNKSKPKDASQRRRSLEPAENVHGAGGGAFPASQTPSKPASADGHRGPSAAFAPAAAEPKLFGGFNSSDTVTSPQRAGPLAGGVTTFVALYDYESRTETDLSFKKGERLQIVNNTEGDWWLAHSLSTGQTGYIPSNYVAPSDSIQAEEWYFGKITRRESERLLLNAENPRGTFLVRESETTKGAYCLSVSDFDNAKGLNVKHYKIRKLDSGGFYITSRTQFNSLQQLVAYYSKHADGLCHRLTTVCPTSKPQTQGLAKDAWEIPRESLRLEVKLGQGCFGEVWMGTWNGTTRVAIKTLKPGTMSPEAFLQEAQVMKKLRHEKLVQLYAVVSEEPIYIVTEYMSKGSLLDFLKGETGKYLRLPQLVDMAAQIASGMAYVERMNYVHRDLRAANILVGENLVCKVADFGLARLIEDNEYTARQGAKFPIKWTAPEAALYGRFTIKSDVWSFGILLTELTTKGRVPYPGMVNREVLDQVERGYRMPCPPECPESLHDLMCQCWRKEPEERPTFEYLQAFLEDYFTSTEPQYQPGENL
Consider `COc1ccc(C)c(-c2c(Cl)n(C(C)(C)C)c3ncnc(N)c23)c1` (atropisomer, axis not shown; (Ra)) [(Ra)-1], for which the IC50 stood at 4550 nM.
Same read-out and setting: the value for `COc1ccc(-c2c(C)n(C(C)(C)C)c3ncnc(N)c23)c(C)c1` (atropisomer, axis not shown; (Ra)) [(Ra)-7] was 3320 nM.
Same read-out and setting: the value for `Cc1c(-c2cccc3ccccc23)c2c(N)ncnc2n1C(C)(C)C` (atropisomer, axis not shown; (Ra)) [(Ra)-10] was 5570 nM.
On the same count and under the same terms, the value for `Cc1c(-c2cccc3c2CCCC3)c2c(N)ncnc2n1C(C)(C)C` (atropisomer, axis not shown; (Ra)) [(Ra)-13] was more than 10000 nM.
In the case of `COc1ccc(C)c(-c2c(Cl)n(C(C)(C)C)c3ncnc(N)c23)c1` (atropisomer, axis not shown; (Sa)) [(Sa)-1], the midpoint of inhibition, the IC50, lay at 4090 nM.
Still for that read-out and setting: then `COc1ccc(-c2c(Cl)n(C(C)(C)C)c3ncnc(N)c23)c(C)c1` (atropisomer, axis not shown; (Sa)) [(Sa)-2], with more than 10000 nM; and `COc1ccc(-c2c(C)n(C(C)(C)C)c3ncnc(N)c23)c(C)c1` (atropisomer, axis not shown; (Sa)) [(Sa)-7], with 4750 nM.
The same measure, in the same setting: the value for `Cc1ccc(-c2c(C)n(C(C)C)c3ncnc(N)c23)c2ccccc12` (atropisomer, axis not shown; (Sa)) [(Sa)-11] was 4560 nM; that for `COc1cc(-c2c(Cl)n(C(C)(C)C)c3ncnc(N)c23)c(Cl)cc1C` (single isomer, unassigned) [(Ra)-3] was more than 10000 nM.
In turn, `COc1ccc(Cl)c(-c2c(C)n(C(C)C)c3ncnc(N)c23)c1` (single isomer, unassigned) [(Ra)-4] displayed an IC50 of 1330 nM.
`COc1ccc(C)c(-c2c(C)n(C(C)(C)C)c3ncnc(N)c23)c1` (single isomer, unassigned) [(Ra)-5] registered an IC50 of 6370 nM.
Same read-out and setting: then `COc1ccc(-c2c(CN)n(C(C)(C)C)c3ncnc(N)c23)c(C)c1` (single isomer, unassigned) [(Ra)-8], with 5290 nM.
Same read-out and setting: then `Cc1c(-c2cccc3ccccc23)c2c(N)ncnc2n1C(C)C` (single isomer, unassigned) [(Ra)-9], with 1370 nM; and `Cc1c(-c2cncc3ccccc23)c2c(N)ncnc2n1C(C)(C)C` (single isomer, unassigned) [(Ra)-12], with 7450 nM.
On the same count and under the same terms, the value for `COc1cc(-c2c(Cl)n(C(C)(C)C)c3ncnc(N)c23)c(Cl)cc1C` (single isomer, unassigned) [(Sa)-3] was 918 nM; that for `COc1ccc(Cl)c(-c2c(C)n(C(C)C)c3ncnc(N)c23)c1` (single isomer, unassigned) [(Sa)-4] was 406 nM; that for `COc1ccc(C)c(-c2c(C)n(C(C)(C)C)c3ncnc(N)c23)c1` (single isomer, unassigned) [(Sa)-5] was 4100 nM.

The same experiment, now with this note: read-out: Src IC50; Table 4.
Consider `COc1ccc(-c2c(Cl)n(C(C)(C)C)c3ncnc(N)c23)c(C)c1` (atropisomer, axis not shown; (Ra)) [(Ra)-2], for which the IC50 was more than 10000 nM.

A further experiment deals with Ret kinase (Homo sapiens, UniProt P07949). The experiment in a line: Z'-LYTE kinase inhibition, Ret. The conditions noted are these: Ret IC50 (nM), Table 4.
Chain of Ret kinase (P07949 29-1114): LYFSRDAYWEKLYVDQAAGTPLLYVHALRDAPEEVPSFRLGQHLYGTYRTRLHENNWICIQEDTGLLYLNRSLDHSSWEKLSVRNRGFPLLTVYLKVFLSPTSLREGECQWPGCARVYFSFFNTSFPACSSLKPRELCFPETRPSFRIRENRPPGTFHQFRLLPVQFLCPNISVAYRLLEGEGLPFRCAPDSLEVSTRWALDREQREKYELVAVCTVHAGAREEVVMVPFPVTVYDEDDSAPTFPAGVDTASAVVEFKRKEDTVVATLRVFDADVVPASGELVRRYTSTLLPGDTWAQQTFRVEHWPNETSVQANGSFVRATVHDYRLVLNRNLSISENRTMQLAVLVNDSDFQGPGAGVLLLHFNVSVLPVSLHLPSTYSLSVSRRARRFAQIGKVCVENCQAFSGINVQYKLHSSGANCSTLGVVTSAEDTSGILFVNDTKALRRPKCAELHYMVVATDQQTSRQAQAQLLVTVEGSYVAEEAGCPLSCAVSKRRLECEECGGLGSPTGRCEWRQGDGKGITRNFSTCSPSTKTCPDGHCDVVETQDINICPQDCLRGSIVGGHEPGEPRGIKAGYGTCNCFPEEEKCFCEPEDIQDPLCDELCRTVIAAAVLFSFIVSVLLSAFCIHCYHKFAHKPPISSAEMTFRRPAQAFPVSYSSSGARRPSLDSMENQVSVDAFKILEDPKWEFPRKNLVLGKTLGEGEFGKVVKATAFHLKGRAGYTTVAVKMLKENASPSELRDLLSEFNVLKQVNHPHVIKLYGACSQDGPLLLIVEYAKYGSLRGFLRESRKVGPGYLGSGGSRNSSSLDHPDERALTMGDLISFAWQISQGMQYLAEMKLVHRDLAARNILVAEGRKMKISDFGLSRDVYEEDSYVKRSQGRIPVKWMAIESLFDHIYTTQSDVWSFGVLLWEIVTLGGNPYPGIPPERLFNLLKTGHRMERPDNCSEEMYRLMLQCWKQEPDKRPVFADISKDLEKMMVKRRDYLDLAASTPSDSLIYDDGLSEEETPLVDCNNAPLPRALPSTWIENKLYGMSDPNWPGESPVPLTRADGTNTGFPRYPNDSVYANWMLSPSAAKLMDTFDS
Take `COc1ccc(C)c(-c2c(Cl)n(C(C)(C)C)c3ncnc(N)c23)c1` (atropisomer, axis not shown; (Ra)) [(Ra)-1]: the IC50 came to 1580 nM.
For the compound `COc1ccc(-c2c(Cl)n(C(C)(C)C)c3ncnc(N)c23)c(C)c1` (atropisomer, axis not shown; (Ra)) [(Ra)-2], 1870 nM corresponded to half-maximal inhibition (IC50).
Same read-out and setting: the value for `COc1ccc(-c2c(C)n(C(C)(C)C)c3ncnc(N)c23)c(C)c1` (atropisomer, axis not shown; (Ra)) [(Ra)-7] was 450 nM; that for `Cc1c(-c2cccc3ccccc23)c2c(N)ncnc2n1C(C)(C)C` (atropisomer, axis not shown; (Ra)) [(Ra)-10] was 282 nM; that for `Cc1c(-c2cccc3c2CCCC3)c2c(N)ncnc2n1C(C)(C)C` (atropisomer, axis not shown; (Ra)) [(Ra)-13] was more than 10000 nM.
Regarding `COc1ccc(C)c(-c2c(Cl)n(C(C)(C)C)c3ncnc(N)c23)c1` (atropisomer, axis not shown; (Sa)) [(Sa)-1], half-maximal inhibition (IC50) required 2240 nM.
On the same count and under the same terms, the value for `COc1ccc(-c2c(Cl)n(C(C)(C)C)c3ncnc(N)c23)c(C)c1` (atropisomer, axis not shown; (Sa)) [(Sa)-2] was 3000 nM; that for `COc1ccc(-c2c(C)n(C(C)(C)C)c3ncnc(N)c23)c(C)c1` (atropisomer, axis not shown; (Sa)) [(Sa)-7] was 918 nM.
Regarding `Cc1ccc(-c2c(C)n(C(C)C)c3ncnc(N)c23)c2ccccc12` (atropisomer, axis not shown; (Sa)) [(Sa)-11], the IC50 came to 2860 nM.
The same measure, in the same setting: then `COc1cc(-c2c(Cl)n(C(C)(C)C)c3ncnc(N)c23)c(Cl)cc1C` (single isomer, unassigned) [(Ra)-3], with 7070 nM.
On the same count and under the same terms, then `COc1ccc(Cl)c(-c2c(C)n(C(C)C)c3ncnc(N)c23)c1` (single isomer, unassigned) [(Ra)-4], with 699 nM.
On the same count and under the same terms, the value for `COc1ccc(C)c(-c2c(C)n(C(C)(C)C)c3ncnc(N)c23)c1` (single isomer, unassigned) [(Ra)-5] was 731 nM; that for `COc1ccc(Cl)c(-c2c(Br)n(C(C)(C)C)c3ncnc(N)c23)c1` (single isomer, unassigned) [(Ra)-6] was 1500 nM.
Consider `COc1ccc(-c2c(CN)n(C(C)(C)C)c3ncnc(N)c23)c(C)c1` (single isomer, unassigned) [(Ra)-8], for which the 50% inhibitory concentration (IC50) came to 773 nM.
The same measure, in the same setting: the value for `Cc1c(-c2cccc3ccccc23)c2c(N)ncnc2n1C(C)C` (single isomer, unassigned) [(Ra)-9] was 34 nM.
On the same count and under the same terms, then `Cc1c(-c2cncc3ccccc23)c2c(N)ncnc2n1C(C)(C)C` (single isomer, unassigned) [(Ra)-12], with 282 nM.
Same read-out and setting: then `COc1cc(-c2c(Cl)n(C(C)(C)C)c3ncnc(N)c23)c(Cl)cc1C` (single isomer, unassigned) [(Sa)-3], with 4810 nM; and `COc1ccc(Cl)c(-c2c(C)n(C(C)C)c3ncnc(N)c23)c1` (single isomer, unassigned) [(Sa)-4], with 2270 nM; and `COc1ccc(C)c(-c2c(C)n(C(C)(C)C)c3ncnc(N)c23)c1` (single isomer, unassigned) [(Sa)-5], with 2500 nM.
`COc1ccc(Cl)c(-c2c(Br)n(C(C)(C)C)c3ncnc(N)c23)c1` (single isomer, unassigned) [(Sa)-6] had an IC50 of 8000 nM.

One may read the IC50 as the concentration that inhibits the measured activity by half.
